From ChEMBL document CHEMBL1141662, “Synthesis and antiproliferative activity of aryl- and heteroaryl-hydrazones derived from xanthone carbaldehydes” (Eur J Med Chem, 2008)

How the values were obtained:
[1] = Antiproliferative activity against human KB 3.1 cells assessed as cell viability at 1 uM after 24 hrs by MTT assay; assay type: functional; details: KB 3-1, 24 h, read-out: Activity
[2] = test system: MCF7; assay: Antiproliferative activity against human MCF7 cells assessed as cell viability at 10 uM after 24 hrs by MTT assay; assay type: functional; details: MCF7, 24 h, read-out: Activity
[3] = Antiproliferative activity against human KB 3.1 cells assessed as cell viability at 10 uM after 24 hrs by MTT assay; assay type: functional; details: KB 3-1, 24 h, read-out: Activity
[4] = test system: MCF7; assay: Antiproliferative activity against human MCF7 cells assessed as cell viability at 1 uM after 24 hrs by MTT assay; assay type: functional; details: MCF7, 24 h, read-out: Activity
[5] = test system: MCF7; assay: Ratio of IC50 for human […] cells after 24 hrs to IC50 for human MCF7 cells after 72 hrs by MTT assay; assay type: functional
[6] = test system: MCF7; assay: Antiproliferative activity against human MCF7 cells after 72 hrs by MTT assay; assay type: functional, cell-based; details: MCF7, 72 h
[7] = Ratio of IC50 for human KB 3.1 cells after 24 hrs to IC50 for human KB 3.1 cells after 72 hrs by MTT assay; assay type: functional
[8] = test system: MCF7; assay: Antiproliferative activity against human MCF7 cells after 24 hrs by MTT assay; assay type: functional, cell-based; details: MCF7, 24 h
[9] = Antiproliferative activity against human KB 3.1 cells after 72 hrs by MTT assay; assay type: functional, cell-based; details: KB 3-1, 72 h
[10] = Antiproliferative activity against human KB 3.1 cells after 24 hrs by MTT assay; assay type: functional, cell-based; details: KB 3-1, 24 h

IC50 [6]	IC50 [8]	Structure (SMILES)	viability at 1 µM [1]	viability at 10 µM [2]	viability at 10 µM [3]	viability at 1 µM [4]	Ratio IC50 [5]	Ratio IC50 [7]	IC50 [9]	IC50 [10]
		CC(=O)Oc1cc(OC(C)=O)c2c(=O)c3ccc(/C=N/Nc4ccccn4)cc3oc2c1	100%	100%	87%	100%				
		CC(=O)Oc1cc(OC(C)=O)c2c(=O)c3cccc(/C=N\Nc4ccccn4)c3oc2c1	95%	79%	90%	80%				
7 µM	9.3 µM	CC(=O)Oc1cc(OC(C)=O)c2c(=O)c3cc(/C=N/NC4=NCCN4)ccc3oc2c1	100%	14%	14%	64%	1.3	2.4	4.7 µM	11.3 µM
		CC(=O)Oc1cc(OC(C)=O)c2c(=O)c3ccc(/C=N/Nc4ccccc4)cc3oc2c1	100%	100%	100%	100%				
		O=c1c2ccc(/C=N/Nc3ccccn3)cc2oc2cc(O)cc(O)c12	77%	3%	2%	100%				
		O=c1c2ccc(/C=N/NC3=NCCN3)cc2oc2cc(O)cc(O)c12	93%	70%	80%	73%				
		O=c1c2cccc(/C=N\NC3=NCCN3)c2oc2cc(O)cc(O)c12	90%	82%	75%	97%				
		O=c1c2cccc(/C=N\Nc3ccccn3)c2oc2cc(O)cc(O)c12	96%	12%	3%	86%				
		O=c1c2cc(/C=N/NC3=NCCN3)ccc2oc2cc(O)cc(O)c12	99%	64%	92%	90%				
		CC(=O)Oc1cc(OC(C)=O)c2c(=O)c3cc(/C=N/Nc4ccccc4)ccc3oc2c1	100%	100%	100%	100%				
		O=c1c2cc(/C=N/Nc3ccccc3)ccc2oc2cc(O)cc(O)c12	100%	72%	82%	100%				
		O=c1c2ccc(/C=N/Nc3ccccc3)cc2oc2cc(O)cc(O)c12	100%	100%	61%	100%				
		O=c1c2cccc(/C=N\Nc3ccccc3)c2oc2cc(O)cc(O)c12	100%	100%	96%	100%				
2.4 µM	1.9 µM	CC(=O)Oc1cc(OC(C)=O)c2c(=O)c3ccc(/C=N/NC4=NCCN4)cc3oc2c1	85%	13%	13%	35%	0.8	0.9	1.8 µM	1.6 µM
		O=c1c2cc(/C=N/Nc3ccccn3)ccc2oc2cc(O)cc(O)c12	95%	41%	90%	58%				
		CC(=O)Oc1cc(OC(C)=O)c2c(=O)c3cccc(/C=N\Nc4ccccc4)c3oc2c1	100%	100%	82%	100%				
		CC(=O)Oc1cc(OC(C)=O)c2c(=O)c3cc(/C=N/Nc4ccccn4)ccc3oc2c1	98%	70%	60%	85%				
5.6 µM	5.1 µM	CC(=O)Oc1cc(OC(C)=O)c2c(=O)c3cccc(/C=N\NC4=NCCN4)c3oc2c1	95%	48%	66%	80%	0.9	1.05	6.5 µM	6.8 µM
		COc1cccc2c1C(=O)c1c(O)c3c(c(O)c1C2=O)C[C@@](O)(C(=O)CO)C[C@@H]3O[C@H]1C[C@H](N)[C@H](O)[C@H](C)O1 [DOXORUBICIN]							0.0004 µM	0.01 µM
